Laboratory results as given in ChEMBL document CHEMBL4184210, “Optimization of novel monobactams with activity against carbapenem-resistant Enterobacteriaceae - Identification of LYS228” (Bioorg Med Chem Lett, 2018).
In brackets after ≈: the same amount, converted by molar mass.

Key:
[1] = tested on: Escherichia coli; assay: Antimicrobial activity against Escherichia coli expressing beta-lactamase NDM-1 by CLSI broth microdilution method; type: functional
[2] = Stability assessed as assessed as Escherichia coli beta-lactamase KPC-2-mediated compound hydrolysis by measuring molar enthalpy of hydrolysis at 1 mM by isothermal titration calorimetry; type: ADME; conditions: 1000 µM
[3] = tested on: Mus musculus; assay: Toxicity in CD1 mouse assessed as induction of convulsion at 100 mg/kg, icv measured 1 hr after post dose; type: organism-based; conditions: in vivo, icv_or_intrathecal
[4] = target: T1, GABA A receptor alpha-2/beta-2/gamma-2 (Homo sapiens, UniProt P18507+P47869+P47870); assay: Inhibition of recombinant human GABA A alpha2beta2gamma2 receptor expressed in CHO-K1 cells incubated at room temperature for 15 mins before the GABA addition fluorescence spectrometry; type: cell-based
T1 sequence (P47870 whole entry): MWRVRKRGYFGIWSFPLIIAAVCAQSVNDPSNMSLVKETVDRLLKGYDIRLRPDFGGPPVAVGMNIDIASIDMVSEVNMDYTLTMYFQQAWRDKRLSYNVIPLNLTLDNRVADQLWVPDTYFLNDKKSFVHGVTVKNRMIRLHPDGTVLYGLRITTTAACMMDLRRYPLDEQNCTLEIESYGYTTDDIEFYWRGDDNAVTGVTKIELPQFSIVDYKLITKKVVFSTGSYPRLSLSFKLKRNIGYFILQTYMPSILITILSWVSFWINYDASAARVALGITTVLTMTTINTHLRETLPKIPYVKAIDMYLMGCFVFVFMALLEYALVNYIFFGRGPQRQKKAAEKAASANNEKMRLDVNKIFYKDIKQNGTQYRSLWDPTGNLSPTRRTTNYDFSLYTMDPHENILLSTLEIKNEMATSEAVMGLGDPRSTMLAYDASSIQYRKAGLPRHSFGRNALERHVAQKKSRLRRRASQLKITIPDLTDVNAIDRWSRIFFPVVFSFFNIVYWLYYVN
T1 sequence (P18507 whole entry): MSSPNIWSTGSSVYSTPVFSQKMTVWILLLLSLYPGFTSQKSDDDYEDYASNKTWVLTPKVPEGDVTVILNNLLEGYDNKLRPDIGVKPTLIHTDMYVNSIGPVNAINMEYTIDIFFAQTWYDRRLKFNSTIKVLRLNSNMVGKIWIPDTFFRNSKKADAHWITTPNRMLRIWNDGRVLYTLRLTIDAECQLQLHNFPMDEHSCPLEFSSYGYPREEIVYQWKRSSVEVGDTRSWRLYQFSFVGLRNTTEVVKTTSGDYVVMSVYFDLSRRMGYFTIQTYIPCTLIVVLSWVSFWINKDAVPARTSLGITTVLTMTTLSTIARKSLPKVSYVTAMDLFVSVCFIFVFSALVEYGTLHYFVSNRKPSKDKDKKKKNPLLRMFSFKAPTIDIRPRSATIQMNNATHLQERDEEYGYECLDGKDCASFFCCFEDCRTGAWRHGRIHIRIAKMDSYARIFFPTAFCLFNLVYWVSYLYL
T1 sequence (P47869 whole entry): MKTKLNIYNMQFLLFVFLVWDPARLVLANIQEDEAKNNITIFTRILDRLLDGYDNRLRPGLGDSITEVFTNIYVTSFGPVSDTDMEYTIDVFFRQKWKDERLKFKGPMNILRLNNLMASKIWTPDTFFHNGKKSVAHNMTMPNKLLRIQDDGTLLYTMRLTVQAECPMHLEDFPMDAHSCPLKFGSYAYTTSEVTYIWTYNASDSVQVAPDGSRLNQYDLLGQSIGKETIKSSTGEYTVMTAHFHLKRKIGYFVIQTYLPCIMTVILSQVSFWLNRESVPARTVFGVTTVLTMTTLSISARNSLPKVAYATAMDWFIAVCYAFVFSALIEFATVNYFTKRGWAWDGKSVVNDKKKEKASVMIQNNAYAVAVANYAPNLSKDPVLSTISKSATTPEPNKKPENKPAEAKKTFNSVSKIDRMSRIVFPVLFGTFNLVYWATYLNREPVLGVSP

[5] = Volume of distribution in mouse at 10 mg/kg, iv; type: ADME, organism-based; conditions: in vivo
[6] = Volume of distribution in rat at 10 mg/kg, iv; type: ADME, organism-based; conditions: in vivo
[7] = Volume of distribution in dog at 10 mg/kg, iv; type: ADME, organism-based, Canis lupus familiaris; conditions: in vivo
[8] = Half life in mouse at 10 mg/kg, iv; type: ADME, organism-based; conditions: in vivo
[9] = Half life in rat at 10 mg/kg, iv; type: ADME, organism-based; conditions: in vivo
[10] = Half life in dog at 10 mg/kg, iv; type: ADME, organism-based, Canis lupus familiaris; conditions: in vivo
[11] = AUC in mouse at 10 mg/kg, iv; type: ADME, organism-based; conditions: in vivo
[12] = AUC in rat at 10 mg/kg, iv; type: ADME, organism-based; conditions: in vivo
[13] = AUC in dog at 10 mg/kg, iv; type: ADME, organism-based, Canis lupus familiaris; conditions: in vivo
[14] = Drug excretion in rat assessed as unchanged parent drug level at 10 mg/kg, iv; type: ADME, organism-based; conditions: in vivo, read-out: Drug excretion
[15] = Drug excretion in dog assessed as unchanged parent drug level at 10 mg/kg, iv; type: ADME, organism-based, Canis lupus familiaris; conditions: in vivo, read-out: Drug excretion
[16] = Clearance in mouse at 10 mg/kg, iv; type: ADME, organism-based; conditions: in vivo
[17] = Clearance in rat at 10 mg/kg, iv; type: ADME, organism-based; conditions: in vivo
[18] = Clearance in dog at 10 mg/kg, iv; type: ADME, organism-based, Canis lupus familiaris; conditions: in vivo
[19] = tested on: Klebsiella pneumoniae; assay: Antimicrobial activity against Klebsiella pneumoniae expressing beta-lactamase NDM-1 by CLSI broth microdilution method; type: functional
[20] = tested on: Klebsiella pneumoniae; assay: Antimicrobial activity against Klebsiella pneumoniae expressing beta-lactamase NDM-1 infected in neutropenic mouse thigh infection model assessed as compound dose causing 1 log10 CFU reduction in bacterial load dosed subcutaneously every 4 hrs; type: functional
[21] = tested on: Klebsiella pneumoniae; assay: Antimicrobial activity against Klebsiella pneumoniae expressing beta-lactamase NDM-1 infected in neutropenic mouse thigh infection model assessed as fT>MIC for causing 1 log10 CFU reduction in bacterial load dosed subcutaneously every 4 hrs; type: functional
[22] = in vitro; conditions: mouse, plasma
Description: Protein binding in mouse plasma

[23] = in vitro; conditions: rat, plasma
Description: Protein binding in rat plasma

[24] = in vitro; conditions: human, plasma
Description: Protein binding in human plasma

[25] = tested on: Escherichia coli; assay: microbe, parasite or virus in culture
Description: Antimicrobial activity against Escherichia coli expressing beta-lactamase CTXM-3 by CLSI broth microdilution method

[26] = tested on: Escherichia coli; assay: microbe, parasite or virus in culture; remark: listed apart in the source
Description: Antimicrobial activity against Escherichia coli expressing beta-lactamase CTXM-15 by CLSI broth microdilution method

[27] = tested on: Escherichia coli; assay: microbe, parasite or virus in culture; remark: listed apart in the source
Description: Antimicrobial activity against Escherichia coli expressing beta-lactamase GES-1 by CLSI broth microdilution method

[28] = tested on: Escherichia coli; assay: microbe, parasite or virus in culture; remark: listed apart in the source
Description: Antimicrobial activity against Escherichia coli expressing beta-lactamase IMI-1 by CLSI broth microdilution method

[29] = tested on: Escherichia coli; assay: microbe, parasite or virus in culture; remark: listed apart in the source
Description: Antimicrobial activity against Escherichia coli expressing beta-lactamase PER-1 by CLSI broth microdilution method

[30] = tested on: Escherichia coli; assay: microbe, parasite or virus in culture; remark: listed apart in the source
Description: Antimicrobial activity against Escherichia coli expressing beta-lactamase VIM-1 by CLSI broth microdilution method

[31] = tested on: Escherichia coli; assay: microbe, parasite or virus in culture; remark: listed apart in the source
Description: Antimicrobial activity against Escherichia coli expressing beta-lactamase MIR-1 by CLSI broth microdilution method

[32] = tested on: Escherichia coli; assay: microbe, parasite or virus in culture; remark: listed apart in the source
Description: Antimicrobial activity against Escherichia coli expressing beta-lactamase Oxa-18 by CLSI broth microdilution method

[33] = tested on: Escherichia coli; assay: microbe, parasite or virus in culture; remark: listed apart in the source
Description: Antimicrobial activity against Escherichia coli expressing beta-lactamase Oxa-160 by CLSI broth microdilution method

For Nc1nc(/C(=N/OC2(C(=O)O)CC2)C(=O)N[C@@H]2C(=O)N(S(=O)(=O)O)[C@@H]2CN2CCOC2=O)cs1 (stereo in doubt) [ANCREMONAM], which MIC [1] is on record?
Its MIC is 0.125 µg/mL (≈ 0.241 µM).

What about the Stability [2] of the same molecule?
The Stability was “Stable”.

And the Activity [3]?
Its Activity is “Non-Toxic”.

And the IC50 [4]?
Its IC50 is greater than 2400 µM.

What about the Vd [5] of the same molecule?
Its Vd is 0.3 L/kg.

What about the Vd [6] of the same molecule?
Its Vd is 0.3 L/kg.

And the Vd [7]?
Its Vd is 0.2 L/kg.

What about the half-life [8] of the same molecule?
Its half-life is 18 min.

What about the half-life [9] of the same molecule?
Its half-life is 36 min.

And the half-life [10]?
The half-life was 48 min.

And the AUC [11]?
Its AUC is 10000 ng·h/mL.

What about the AUC [12] of the same molecule?
The AUC was 19000 ng·h/mL.

And the AUC [13]?
Its AUC is 13000 ng·h/mL.

And the dose excreted [14]?
The dose excreted was 30%.

And the dose excreted [15]?
Its dose excreted is 34%.

And the clearance [16]?
The clearance was 16 mL/min/kg.

And the clearance [17]?
Its clearance is 9 mL/min/kg.

What about the clearance [18] of the same molecule?
The clearance was 4 mL/min/kg.

What about the MIC [19] of the same molecule?
Its MIC is 1 µg/mL (≈ 1.93 µM).

And the Activity [20]?
The Activity was 1590 mg/kg/day.

What about the “fT>MIC” value [21] of the same molecule?
Its value is 65%.

What about the fraction unbound [22] of the same molecule?
The fraction unbound was 0.74.

And the fraction unbound [23]?
Its fraction unbound is 0.53.

And the fraction unbound [24]?
Its fraction unbound is 0.87.

What about the MIC [25] of the same molecule?
Its MIC is 0.125 µg/mL (≈ 0.241 µM).

What about the MIC [26] of the same molecule?
The MIC was 0.125 µg/mL (≈ 0.241 µM).

And the MIC [27]?
Its MIC is 0.125 µg/mL (≈ 0.241 µM).

And the MIC [28]?
The MIC was 0.125 µg/mL (≈ 0.241 µM).

And the MIC [29]?
The MIC was 64 µg/mL (≈ 123 µM).

What about the MIC [30] of the same molecule?
The MIC was 0.125 µg/mL (≈ 0.241 µM).

And the MIC [31]?
The MIC was 0.125 µg/mL (≈ 0.241 µM).

And the MIC [32]?
The MIC was 0.5 µg/mL (≈ 0.964 µM).

What about the MIC [33] of the same molecule?
The MIC was 1 µg/mL (≈ 1.93 µM).

Which MIC [1] does the source give for N=C(N)NCc1cnn(C[C@@H]2[C@H](NC(=O)/C(=N\OC3(C(=O)O)CC3)c3csc(N)n3)C(=O)N2S(=O)(=O)O)n1 (stereo in doubt) here?
Its MIC is no more than 0.06 µg/mL.

What about the IC50 [4] of the same molecule?
Its IC50 is 190 µM.

What about the MIC [25] of the same molecule?
The MIC was 0.25 µg/mL (≈ 0.437 µM).

And the MIC [26]?
The MIC was 0.125 µg/mL (≈ 0.219 µM).

And the MIC [27]?
The MIC was 0.06 µg/mL (≈ 0.105 µM).

And the MIC [28]?
Its MIC is 0.06 µg/mL (≈ 0.105 µM).

And the MIC [29]?
Its MIC is 64 µg/mL (≈ 112 µM).

What about the MIC [30] of the same molecule?
The MIC was 0.06 µg/mL (≈ 0.105 µM).

What about the MIC [31] of the same molecule?
The MIC was 0.5 µg/mL (≈ 0.875 µM).

What about the MIC [32] of the same molecule?
Its MIC is 0.5 µg/mL (≈ 0.875 µM).

What about the MIC [33] of the same molecule?
Its MIC is 0.125 µg/mL (≈ 0.219 µM).

What does the source list for NC[C@@H]1CN(C[C@@H]2[C@H](NC(=O)/C(=N\OC3(C(=O)O)CC3)c3csc(N)n3)C(=O)N2S(=O)(=O)O)C(=O)O1 (stereo in doubt)?
MIC [1]: 0.125 µg/mL (≈ 0.228 µM); Activity [3]: Toxic; IC50 [4]: 1340 µM; MIC [25]: ≤ 0.06 µg/mL; MIC [26]: 0.125 µg/mL (≈ 0.228 µM); MIC [27]: 0.06 µg/mL (≈ 0.11 µM); MIC [28]: 0.125 µg/mL (≈ 0.228 µM); MIC [29]: > 64 µg/mL; MIC [30]: 0.06 µg/mL (≈ 0.11 µM); MIC [31]: ≤ 0.06 µg/mL; MIC [32]: 0.5 µg/mL (≈ 0.913 µM); MIC [33]: 0.25 µg/mL (≈ 0.457 µM)

What does the source list for N=C(N)NCc1cn(C[C@@H]2[C@H](NC(=O)/C(=N\OC3(C(=O)O)CC3)c3csc(N)n3)C(=O)N2S(=O)(=O)O)nn1 (stereo in doubt)?
MIC [1]: 0.125 µg/mL (≈ 0.219 µM); IC50 [4]: 890 µM; MIC [25]: 0.25 µg/mL (≈ 0.437 µM); MIC [26]: 0.125 µg/mL (≈ 0.219 µM); MIC [27]: 0.06 µg/mL (≈ 0.105 µM); MIC [28]: 0.06 µg/mL (≈ 0.105 µM); MIC [29]: 32 µg/mL (≈ 56 µM); MIC [30]: 0.125 µg/mL (≈ 0.219 µM); MIC [31]: 0.5 µg/mL (≈ 0.875 µM); MIC [32]: 1 µg/mL (≈ 1.75 µM); MIC [33]: 0.25 µg/mL (≈ 0.437 µM)
